Source: US4943581A, “Isoquinolinesulfonamides” (Hokuriku Pharmaceutical Co., Ltd., priority 1988, dated 1990)
Counter-ions that a name gives are not always drawn.

What was measured:
[1] = biological target: T1, myosin light-chain kinase (Gallus gallus, UniProt P11799); assay: Inhibition of myosin light-chain kinase (32P incorporation from [γ-32P] ATP into myosin light chain); assay type: biochemical; details: enzymatic activity depression of 50%; chicken gizzard; 200 μM CaCl2, 80 ng calmodulin, pH 7.0, 30 °C
T1 construct: myosin light chain kinase (prepared from the smooth muscles of chicken gizzard); from tissue; host or cells: smooth muscle of chicken gizzard (kinase); cattle brain (calmodulin)
Experimental: A myosin light chain of the smooth muscles of chicken gizzard was used as a substrate and the amount of radioactive phosphoric acid incorporated from [γ-32P] ATP into the substrate-protein was measured for a determination of the activity of the enzyme. The reaction solution, in an amount of 200 μl as a whole, was constituted from 25 mM of Tris-HCl(pH 7.0), 10 mM MgCl2, 40 μg of myosin light chain (obtained by preparing myosin from the smooth muscle of chicken gizzard followed by guanidine denaturization), 200 μM of CaCl2, 80 ng of calmodulin (prepared from cattle brain), myosin light chain kinase (prepared from the smooth muscles of chicken gizzard), and agents of various concentrations. The reaction was started by the addition of 20 μl of 100 μM [γ-32P] ATP at 30 ° C., and stopped by the addition of 0.5 ml of 20% TCA. After the reaction was stopped, 3 ml of 5% TCA and 0.1 ml of 1 mg/ml albumin solution were added into the reaction mixture, the resulting solution was centrifuged, and the obtained acid-insoluble protein was fixed on the bottom of a test tube. Further, the supernatant was removed, 3 ml of 5% TCA was added into the residue, and the solution was centrifuged. […] The precipitated protein was dissolved with 2 ml of 1 N NaOH, transferred to a vial containing about 10 ml of water, and measured for Cherenkov effect by a liquid scintillation counter. […]

[2] = tested on: smooth muscle of the blood vessel (superior mesenteric artery); assay: Relaxation effect on smooth muscle of blood vessel (spiral specimen of superior mesenteric artery contracted with 20 mM KCl); details: Oryctolagus cuniculus; concentration giving 50% relaxation; contraction induced by 20 mM KCl taken as 100%; 37°±0.5° C.; rabbit superior mesenteric artery; read-out: ED50 (the source's name)
Experimental: The extracted blood vessels were cut in the usual way into the form of spirals, and a specimen of 1.5-2.5 mm in width and 20-30 mm in length was formed. The spiral specimen was suspended in 20 ml organ bath comprising Krebs-Henseleit's solution, after which a tension of 2.0-0.5 g was loaded. The nutrient solution was warmed at 37°±0.5° C. and ventilated by mixed gas of 95% oxygen and 5% carbon dioxide. The lower end was fixed, whereas the upper end was attached to a force-displacement transducer (SB-1T) manufactured by Nihon Koden Company. The change of tension was recorded isometrically. The specimen was suspended for at least 60 minutes before the test was begun, and the nutrient solution was exchanged every 15 minutes to conduct the experiment in the meantime.
The relaxation effect upon the smooth muscle of the blood vessel was tested. Previously, the spiral specimen had been contracted with 20 mM of KCl and maintained at a certain tension; thereafter the test agent was added cumulatively. Contraction induced by 20 mM KCl was taken as 100% and the relaxation effect of the test agent was represented by ED50 which was the concentration of the agent at which only 50% of the muscles remained shrunken.

T1 sequence (P11799 935-1906): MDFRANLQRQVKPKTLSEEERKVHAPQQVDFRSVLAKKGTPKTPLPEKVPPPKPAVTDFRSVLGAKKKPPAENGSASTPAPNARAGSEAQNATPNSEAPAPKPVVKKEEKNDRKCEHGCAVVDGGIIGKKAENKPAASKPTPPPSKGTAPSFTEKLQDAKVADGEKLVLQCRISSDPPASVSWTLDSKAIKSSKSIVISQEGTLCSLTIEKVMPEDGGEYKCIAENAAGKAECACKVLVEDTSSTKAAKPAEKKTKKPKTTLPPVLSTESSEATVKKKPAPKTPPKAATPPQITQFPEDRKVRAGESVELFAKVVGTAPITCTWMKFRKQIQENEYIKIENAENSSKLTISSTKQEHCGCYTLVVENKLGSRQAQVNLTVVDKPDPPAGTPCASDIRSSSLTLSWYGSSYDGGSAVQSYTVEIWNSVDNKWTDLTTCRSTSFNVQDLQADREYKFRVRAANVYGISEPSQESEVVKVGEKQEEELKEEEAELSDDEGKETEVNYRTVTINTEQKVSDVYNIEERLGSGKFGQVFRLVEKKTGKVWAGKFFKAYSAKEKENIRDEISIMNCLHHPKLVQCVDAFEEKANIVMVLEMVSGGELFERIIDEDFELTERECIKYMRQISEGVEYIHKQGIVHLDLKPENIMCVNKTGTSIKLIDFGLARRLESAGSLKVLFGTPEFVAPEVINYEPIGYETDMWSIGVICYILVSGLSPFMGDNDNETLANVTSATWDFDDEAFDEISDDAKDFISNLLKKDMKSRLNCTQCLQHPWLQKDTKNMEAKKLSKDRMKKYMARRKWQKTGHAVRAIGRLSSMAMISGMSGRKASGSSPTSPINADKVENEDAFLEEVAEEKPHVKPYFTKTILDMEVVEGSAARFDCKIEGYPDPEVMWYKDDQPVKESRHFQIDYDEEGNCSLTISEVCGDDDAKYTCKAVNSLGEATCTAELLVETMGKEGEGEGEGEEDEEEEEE

IC50 [1]: 31 µM
EC50 [2]: 32 µM
Structure (SMILES): NCCNS(=O)(=O)c1ccc(Cl)c2ccncc12 [Example 1, N-(2-Aminoethyl)-5-chloroisoquinoline-8-sulfonamide 2 hydrochloride]
